Test results as given in PubChem BioAssay AID2060510 (Molecular Pharmacology Branch, DTP, NCI, 2025).
pIC50: −log10 of the molar value.

Test system: 439559-082-T-J2-PDC spheroids viability
Test: Anticancer human tumor 439559-082-T-J2-PDC patient-derived colon adenocarcinoma cell line growth inhibition [GQUAD]
Conditions: for pIC50: curve of first compound; for viability, T/C: stronger effect = lower value
Method in brief: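 Multi-cell-type spheroids of tumor cells with HUVEC and mesenchymal stem cells, treated with drug combinations. Concentrations descend in half-log steps from near clinical Cmax, or from 10 microM where Cmax is unknown; viability read-out.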

[1] = second compound 0.0316 µM, first compound 0.0316 µM
[2] = second compound 0.0316 µM, first compound 0.1 µM
[3] = second compound 0.0316 µM, first compound 0.316 µM
[4] = second compound 0.0316 µM, first compound 1 µM
[5] = second compound 0.0316 µM, first compound 3.16 µM
[6] = second compound 0.0316 µM, first compound 10 µM
[7] = second compound 0.1 µM, first compound 0.0316 µM
[8] = second compound 0.1 µM, first compound 0.1 µM
[9] = second compound 0.1 µM, first compound 0.316 µM
[10] = second compound 0.1 µM, first compound 1 µM
[11] = second compound 0.1 µM, first compound 3.16 µM
[12] = second compound 0.1 µM, first compound 10 µM
[13] = second compound 0.316 µM, first compound 0.0316 µM
[14] = second compound 0.316 µM, first compound 0.1 µM
[15] = second compound 0.316 µM, first compound 0.316 µM
[16] = second compound 0.316 µM, first compound 1 µM
[17] = second compound 0.316 µM, first compound 3.16 µM
[18] = second compound 0.316 µM, first compound 10 µM
[19] = second compound 1 µM, first compound 0.0316 µM
[20] = second compound 1 µM, first compound 0.1 µM
[21] = second compound 1 µM, first compound 0.316 µM
[22] = second compound 1 µM, first compound 1 µM
[23] = second compound 1 µM, first compound 3.16 µM
[24] = second compound 1 µM, first compound 10 µM
[25] = second compound 3.16 µM, first compound 0.0316 µM
[26] = second compound 3.16 µM, first compound 0.1 µM
[27] = second compound 3.16 µM, first compound 0.316 µM
[28] = second compound 3.16 µM, first compound 1 µM
[29] = second compound 3.16 µM, first compound 3.16 µM
[30] = second compound 3.16 µM, first compound 10 µM
[31] = second compound 10 µM, first compound 0.0316 µM
[32] = second compound 10 µM, first compound 0.1 µM
[33] = second compound 10 µM, first compound 0.316 µM
[34] = second compound 10 µM, first compound 1 µM
[35] = second compound 10 µM, first compound 3.16 µM
[36] = second compound 10 µM, first compound 10 µM
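Further: spheroids exposed to the agents for 7 days before readout.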
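Wherever viability, T/C is given: percent of luminescence signal in DMSO vehicle wells taken as 100% viability.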

In the case of COc1ncnc(C2CC2)c1-c1ncc2cnn(Cc3ccc(-c4nc(C(F)(F)F)cn4C(C)C)cc3)c2n1 + Cc1[nH]c2ccc(F)cc2c1-c1nc2c3cccnc3c3ncccc3c2[nH]1, the pIC50 (second compound 0.0316 µM) was < 5.00, the pIC50 (second compound 0.1 µM) was < 5.00 and the pIC50 (second compound 0.316 µM) was < 5.00. The pIC50 (second compound 1 µM) was < 5.00, the pIC50 (second compound 3.16 µM) was < 5.00 and the pIC50 (second compound 10 µM) was < 5.00. The viability, T/C [1] was 102%, the viability, T/C [2] was 86.8% and the viability, T/C [3] was 97.2%. The viability, T/C [4] was 90.3%, the viability, T/C [5] was 81.5% and the viability, T/C [6] was 58%. For the same molecule, the viability, T/C [7] was 112%, the viability, T/C [8] was 94.8% and the viability, T/C [9] was 97.6%. For the same molecule, the viability, T/C [10] was 93.8%, the viability, T/C [11] was 84.6% and the viability, T/C [12] was 63.6%. The viability, T/C [13] was 103%, the viability, T/C [14] was 104% and the viability, T/C [15] was 103%. The viability, T/C [16] was 90.6%, the viability, T/C [17] was 83.7% and the viability, T/C [18] was 72.5%. The viability, T/C [19] was 99.8%, the viability, T/C [20] was 92% and the viability, T/C [21] was 91.9%. The viability, T/C [22] was 92.5%, the viability, T/C [23] was 77.8% and the viability, T/C [24] was 60.4%. The viability, T/C [25] was 97.3%, the viability, T/C [26] was 95.3% and the viability, T/C [27] was 93.2%. It also gave a viability, T/C [28] of 78.2%, a viability, T/C [29] of 82.5% and a viability, T/C [30] of 50.6%. For the same molecule, the viability, T/C [31] was 80.8%, the viability, T/C [32] was 62.9% and the viability, T/C [33] was 92.6%. The viability, T/C [34] was 81.7%, the viability, T/C [35] was 84.8% and the viability, T/C [36] was 60.7%.

With Cc1[nH]c2ccccc2c1CCNCc1ccc(/C=C/C(=O)NO)cc1 + Cc1[nH]c2ccc(F)cc2c1-c1nc2c3cccnc3c3ncccc3c2[nH]1 the pIC50 (second compound 0.0316 µM) was < 6.50, the pIC50 (second compound 0.1 µM) was < 6.50 and the pIC50 (second compound 0.316 µM) was < 6.50. For the same molecule, the pIC50 (second compound 1 µM) was < 6.50, the pIC50 (second compound 3.16 µM) was < 6.50 and the pIC50 (second compound 10 µM) was < 6.50. It also gave a viability, T/C (second compound 0.0316 µM, first compound 0.000999 µM) of 97.3%, a viability, T/C (second compound 0.0316 µM, first compound 0.00316 µM) of 107% and a viability, T/C (second compound 0.0316 µM, first compound 0.00999 µM) of 92.6%. It also gave a viability, T/C [1] of 85.9%, a viability, T/C (second compound 0.0316 µM, first compound 0.0999 µM) of 102% and a viability, T/C [3] of 97.9%. The viability, T/C (second compound 0.1 µM, first compound 0.000999 µM) was 120%, the viability, T/C (second compound 0.1 µM, first compound 0.00316 µM) was 86.1% and the viability, T/C (second compound 0.1 µM, first compound 0.00999 µM) was 107%. It also gave a viability, T/C [7] of 92.9%, a viability, T/C (second compound 0.1 µM, first compound 0.0999 µM) of 101% and a viability, T/C [9] of 105%. For the same molecule, the viability, T/C (second compound 0.316 µM, first compound 0.000999 µM) was 115%, the viability, T/C (second compound 0.316 µM, first compound 0.00316 µM) was 91.1% and the viability, T/C (second compound 0.316 µM, first compound 0.00999 µM) was 95.6%. For the same molecule, the viability, T/C [13] was 100%, the viability, T/C (second compound 0.316 µM, first compound 0.0999 µM) was 91.6% and the viability, T/C [15] was 100%. It also gave a viability, T/C (second compound 1 µM, first compound 0.000999 µM) of 92.5%, a viability, T/C (second compound 1 µM, first compound 0.00316 µM) of 88.8% and a viability, T/C (second compound 1 µM, first compound 0.00999 µM) of 87.3%. The viability, T/C [19] was 93.2%, the viability, T/C (second compound 1 µM, first compound 0.0999 µM) was 91.9% and the viability, T/C [21] was 91.3%. The viability, T/C (second compound 3.16 µM, first compound 0.000999 µM) was 84%, the viability, T/C (second compound 3.16 µM, first compound 0.00316 µM) was 70.6% and the viability, T/C (second compound 3.16 µM, first compound 0.00999 µM) was 87.9%. The viability, T/C [25] was 78.5%, the viability, T/C (second compound 3.16 µM, first compound 0.0999 µM) was 90.2% and the viability, T/C [27] was 85.7%. It also gave a viability, T/C (second compound 10 µM, first compound 0.000999 µM) of 74%, a viability, T/C (second compound 10 µM, first compound 0.00316 µM) of 80.9% and a viability, T/C (second compound 10 µM, first compound 0.00999 µM) of 82.6%. It also gave a viability, T/C [31] of 83.2%, a viability, T/C (second compound 10 µM, first compound 0.0999 µM) of 91.5% and a viability, T/C [33] of 83.3%.

With O=C(NO)c1cnc(N2CCN(S(=O)(=O)c3ccc4ccccc4c3)CC2)nc1 + Cc1[nH]c2ccc(F)cc2c1-c1nc2c3cccnc3c3ncccc3c2[nH]1 the pIC50 (second compound 0.0316 µM) was 5.68, the pIC50 (second compound 0.1 µM) was 5.73 and the pIC50 (second compound 0.316 µM) was 5.42. For the same molecule, the pIC50 (second compound 1 µM) was 5.69, the pIC50 (second compound 3.16 µM) was 5.87 and the pIC50 (second compound 10 µM) was 5.96. It also gave a viability, T/C [1] of 90.8%, a viability, T/C [2] of 86% and a viability, T/C [3] of 75.8%. For the same molecule, the viability, T/C [4] was 60.1%, the viability, T/C [5] was 44.6% and the viability, T/C [6] was 31.5%. It also gave a viability, T/C [7] of 84.4%, a viability, T/C [8] of 79.8% and a viability, T/C [9] of 75.9%. The viability, T/C [10] was 64.4%, the viability, T/C [11] was 37.9% and the viability, T/C [12] was 31.4%. The viability, T/C [13] was 85.4%, the viability, T/C [14] was 76.4% and the viability, T/C [15] was 76%. For the same molecule, the viability, T/C [16] was 65%, the viability, T/C [17] was 55.9% and the viability, T/C [18] was 30.8%. The viability, T/C [19] was 86.2%, the viability, T/C [20] was 85.2% and the viability, T/C [21] was 77.1%. It also gave a viability, T/C [22] of 64.8%, a viability, T/C [23] of 41% and a viability, T/C [24] of 25.7%. The viability, T/C [25] was 70.3%, the viability, T/C [26] was 73.7% and the viability, T/C [27] was 62.1%. For the same molecule, the viability, T/C [28] was 58.1%, the viability, T/C [29] was 31.6% and the viability, T/C [30] was 25.8%. The viability, T/C [31] was 68.2%, the viability, T/C [32] was 67.4% and the viability, T/C [33] was 58.4%. The viability, T/C [34] was 53.1%, the viability, T/C [35] was 24.2% and the viability, T/C [36] was 22.4%.
